7 molecules from PMC11808397, “Development of selective nanomolar cyclic peptide ligands as GBA1 enzyme stabilisers” (RSC Chemical Biology, 2025) can be followed below.

The target of assay [1] is T1, GBA1 in fibroblast lysates (Homo sapiens, UniProt P04062).
T1 construct: host or cells: human dermal fibroblasts
T1 sequence (P04062 40-536): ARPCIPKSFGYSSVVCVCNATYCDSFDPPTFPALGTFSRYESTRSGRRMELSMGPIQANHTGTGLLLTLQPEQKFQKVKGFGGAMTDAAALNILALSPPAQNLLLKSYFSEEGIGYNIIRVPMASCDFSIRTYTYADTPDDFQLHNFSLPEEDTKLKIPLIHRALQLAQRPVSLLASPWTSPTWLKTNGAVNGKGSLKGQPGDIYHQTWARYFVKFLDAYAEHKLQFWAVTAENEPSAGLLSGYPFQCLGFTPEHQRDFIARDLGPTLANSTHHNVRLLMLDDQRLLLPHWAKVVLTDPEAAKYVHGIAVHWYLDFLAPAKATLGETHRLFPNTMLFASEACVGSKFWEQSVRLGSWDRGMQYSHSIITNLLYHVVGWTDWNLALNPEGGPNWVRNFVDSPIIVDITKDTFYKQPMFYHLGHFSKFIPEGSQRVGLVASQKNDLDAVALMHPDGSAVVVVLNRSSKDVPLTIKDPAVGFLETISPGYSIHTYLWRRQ
Nature of the assay: GBA1 inhibition in lysates of fibroblasts treated with peptides. Type of assay: cell-based. The following applies: cells treated with peptides at increasing concentrations for 16 h, washed with PBS and homogenized; 4-MU assay. On the procedure:
We further investigated GBA1 inhibition in cells. Human dermal fibroblasts were initially incubated with peptide concentrations ranging from 0.1 μM (from 0.001 μM for L4, D1 and D12) to 100 μM of each cyclic peptide for […]. […] To further confirm the inability of these peptides to cross the cell membrane, we conducted in situ competitive activity-based protein profiling (cABPP) experiments using RAW 264.7 monocyte/macrophage-like cells. […] RAW 264.7 cells were then treated with increasing concentrations of cyclic peptides (0, 0.1, 1, 10, and 100 μM) for 4 hours, followed by exposure to a cell-penetrant Bodipy red broad spectrum GBA activity-based probe (ABP), JJB75[58] at 10 nM for 2 hours (Fig. S5 for chemical structures, ESI ^†). […] This cABPP experiment further confirms that the peptides are unable to cross the cell membrane (Fig. S6, ESI ^†).
Selective Cyclic Peptide Ligands as GBA1 Stabilizers Katzy et al. […]
Table S1. IC50 values for GBA1 inhibition in fibroblast lysates. Cells were treated with the peptides at increasing concentrations for 16 h, washed with PBS and homogenized. Reported values are mean ± standard deviation from 3 technical triplicates. N.D.: not determined.
Peptide GBA1 in fibroblast lysates
(1 picture or pasted object on this page, not shown here) […]
2.6. In situ cell studies
Human fibroblasts (Cambrex-Lonza CC-2511) were cultured in complete DMEM/F12 growth medium supplemented with 10% (v/v) foetal calf serum and 0.1 % (w/v) penicillin/streptomycin at 37 °C and 5% CO2. Cells were seeded in 12-well plates during passage and the incubations were started when cells were 80% - 100% confluent. Peptides were added in 500 µL medium (10 and 50 µM final concentration) and incubated overnight. After incubation cells were washed three times with cold PBS and harvested in 30 µL lysis buffer (25 mM KPi, pH 6,5 supplemented with 0.1% Triton-X 100 (v/v) and protease inhibitor). Lysates were frozen at -80 °C until use. GlcCer and GlcSph lipids were quantified as described below. In parallel, enzyme activity in cell lysates was measured using 3.7 mM 4-methylumbeliferone (4MU)-β-D-glucopyranoside in 150 mM McIlvaine buffer pH 5.2 supplemented with 0.1% bovine serum albumin (BSA) (w/v), 0.1% Triton X-100 (v/v), and 0.2% sodium taurocholate (w/v) as described above (see Table S1). […]
PBS and harvested in ice cold water. Lysates were kept at -80 °C until extraction.
2.7. 2.5. GlcCer and GlcSph lipid analysis
Levels of GlcCer and GlcSph were determined with a modified acidic Bligh & Dyer extraction (Figure 2 and S5).7 Briefly, after addition of internal standards (C17-dh-Ceramide and 13C5-Glucosylsphingosine), lipids were separated in an organic and an aqueous phase. The separated phases were dried under N2 or in a concentrator. The dried organic lower phase was reconstituted in 0.1 M NaOH in MeOH and underwent microwave-assisted deacylation. After neutralization, the samples were dried. Both phases were further extracted and desalted with equal amounts of water and butanol. The butanol phases were taken up to dryness and the lipids were dissolved in MeOH and transferred to MS vials for analysis in a LC-MS/MS system as described previously.7
2.8. Thermostability assays in rhGBA (Cerezyme)
Varying concentrations of peptides were incubated with 1 µM rhGBA1 in 20 mM HEPES pH 7.0 with 100 mM NaCl, with a final DMSO concentration of 0.5 %, for 2 hours at room temperature. Melting

For assay [2], the target named is T2, recombinant human GBA1 (rhGBA1, Cerezyme) (Homo sapiens, UniProt P04062, R534H).
T2 construct: purchased Cerezyme
T2 sequence (P04062 40-536 R534H): T1 sequence (P04062 40-536) with R495H
Kind of assay: Thermostability of rhGBA1, label-free differential scanning fluorimetry (Tycho NT.6). Type of assay: binding. The following applies: rhGBA1 at 1 μM, 20 mM HEPES pH 7.0, 100 mM NaCl, 0.5% DMSO, 2 h room temperature; N. D. = not determined due to a lack of stabilisation effect. Background: Differential scanning fluorimetry follows unfolding on heating by fluorescence.
Procedure: Samples were incubated at room temperature for 2
hours before measurement in the Tycho NT6.
curves were determined in triplicate using the Tycho NT.6 (NanoTemper), according to manufacturer

Substitutions are numbered along the chain they refer to. Positions of bridges follow the written chain, without caps; N, C: chain ends. Non-standard residues stand in square brackets, D forms with d. Residues, ends and D or L forms follow the SMILES beside them.

Consider `CC[C@H](C)[C@H](NC(=O)[C@H](CC(C)C)NC(=O)[C@H](Cc1ccc(O)cc1)NC(=O)[C@H](Cc1ccc(O)cc1)NC(=O)[C@@H]1CSCC(=O)N[C@H](Cc2ccc(O)cc2)C(=O)N[C@@H](CCCNC(=N)N)C(=O)N[C@@H](C(C)C)C(=O)N1)C(=O)N[C@H](C(=O)N[C@H](C(=O)N[C@@H](CC(C)C)C(=O)N[C@@H](CC(=O)O)C(=O)N[C@@H](CS)C(N)=O)C(C)C)[C@@H](C)O` [D1] ({CH2CO}-[dY]RVCYYLITVLDC-NH2; thioether N-4), for which, in assay [1], half-maximal inhibition (IC50) required 0.44 µM.
Regarding `CC(C)C[C@H](NC(=O)[C@@H](NC(=O)[C@H](CCCNC(=N)N)NC(=O)[C@@H]1CSCC(=O)N[C@H](Cc2ccc(O)cc2)C(=O)N[C@@H]([C@@H](C)O)C(=O)N2CCC[C@H]2C(=O)NCC(=O)N[C@@H](Cc2ccc(O)cc2)C(=O)N[C@@H](C(C)C)C(=O)N[C@@H](Cc2ccc(O)cc2)C(=O)N1)C(C)C)C(=O)N[C@@H](CCCCN)C(=O)N[C@@H](Cc1ccc(O)cc1)C(=O)N[C@@H](CS)C(N)=O` [D8] ({CH2CO}-[dY]TPGYVYCRVLKYC-NH2; thioether N-8), the concentration giving a half-maximal response (EC50) in assay [2] came to 2.2 ± 0.5 µM. In assay [1], this molecule showed an IC50 of 5.16 µM.
In the same order, the values of `CC(C)C[C@@H]1NC(=O)CNC(=O)[C@H](CC(C)C)NC(=O)[C@@H](Cc2ccc(O)cc2)NC(=O)CSC[C@@H](C(N)=O)NC(=O)[C@H](CO)NC(=O)[C@H](CCCCN)NC(=O)[C@H](CC(C)C)NC(=O)[C@H](Cc2ccccc2)NC(=O)[C@H](CCCNC(=N)N)NC(=O)[C@H](Cc2ccc(O)cc2)NC(=O)[C@H](Cc2c[nH]c3ccccc23)NC1=O` [D12] ({CH2CO}-[dY]LGLWYRFLKSC-NH2; thioether N-12) are 1.9 ± 0.4 µM and 0.334 µM.
`CC[C@H](C)[C@@H]1NC(=O)[C@H](CO)NC(=O)[C@H](CS)NC(=O)CNC(=O)CNC(=O)[C@H](CC(C)C)NC(=O)[C@H](Cc2ccc(O)cc2)NC(=O)[C@H](C(C)C)NC(=O)[C@H](CC(C)C)NC(=O)[C@H](CCCNC(=N)N)NC(=O)[C@@H]2CCCN2C(=O)[C@H](Cc2ccc(O)cc2)NC(=O)CSC[C@@H](C(N)=O)NC(=O)[C@H](CCC(=O)O)NC(=O)[C@H](CC(C)C)NC(=O)[C@H](CC(C)C)NC1=O` [L1] ({CH2CO}-YPRLVYLGGCSILLEC-NH2; thioether N-16) showed an IC50 in assay [1] of 39.7 µM.
As for `CC[C@H](C)[C@H](NC(=O)[C@H](CCCNC(=N)N)NC(=O)[C@@H]1CSCC(=O)N[C@@H](Cc2ccc(O)cc2)C(=O)N[C@@H](C)C(=O)N[C@@H](Cc2ccc(O)cc2)C(=O)N[C@@H](Cc2c[nH]c3ccccc23)C(=O)N[C@@H](Cc2c[nH]c3ccccc23)C(=O)N[C@@H](CC(C)C)C(=O)N1)C(=O)N1CCC[C@H]1C(=O)N[C@@H](Cc1c[nH]c2ccccc12)C(=O)N[C@@H](CC(C)C)C(=O)N[C@@H](CO)C(=O)N[C@H](C(N)=O)C(C)C` [L2] ({CH2CO}-YAYWWLCRIPWLSV-NH2; thioether N-7), in assay [2], the half-maximal effective concentration (EC50) turned out to be 2 ± 0.5 µM. Moreover, in assay [1], the IC50 worked out at 0.898 µM.
As for `CC(C)C[C@@H]1NC(=O)CNC(=O)[C@H](Cc2ccccc2)NC(=O)[C@H](CC(C)C)NC(=O)[C@@H]2CCCN2C(=O)[C@H](Cc2ccc(O)cc2)NC(=O)CSC[C@@H](C(=O)N2CCC[C@H]2C(=O)N[C@@H](CC(N)=O)C(=O)N[C@@H](Cc2c[nH]c3ccccc23)C(=O)N[C@@H](Cc2ccccc2)C(=O)N2CCC[C@H]2C(=O)N[C@@H](Cc2ccc(O)cc2)C(=O)N[C@@H](CCC(N)=O)C(=O)N[C@@H](CS)C(N)=O)NC(=O)[C@H](CO)NC(=O)[C@H](Cc2ccccc2)NC1=O` [L4] ({CH2CO}-YPLFGLFSCPNWFPYQC-NH2; thioether N-9), in assay [2], the EC50 turned out to be 2.6 ± 1.1 µM. Also, the IC50 in assay [1] was 0.067 µM.
Take `CC[C@H](C)[C@@H]1NC(=O)[C@H](Cc2ccc(O)cc2)NC(=O)CSC[C@@H](C(N)=O)NC(=O)[C@H](Cc2c[nH]c3ccccc23)NC(=O)[C@H](CCC(N)=O)NC(=O)[C@H]([C@@H](C)CC)NC(=O)[C@H]([C@@H](C)CC)NC(=O)[C@@H]2CCCN2C(=O)[C@H](C(C)C)NC(=O)[C@H](Cc2ccc(O)cc2)NC(=O)[C@H](Cc2c[nH]c3ccccc23)NC(=O)[C@H](CO)NC1=O` [L6] ({CH2CO}-YISWYVPIIQWC-NH2; thioether N-12): in assay [1], the IC50 is 22.3 µM.

What is called IC50 is the concentration that inhibits the measured activity by half. One may read the EC50 as the midpoint of the concentration-response curve.
